# According to ChEMBL document CHEMBL1140596, “Pharmacophore identification of KSP inhibitors” (Bioorg Med Chem Lett, 2007):
# Molecular target: T1, Kinesin-like protein KIF11 (Homo sapiens, UniProt P52732)
# T1 sequence (P52732 whole entry): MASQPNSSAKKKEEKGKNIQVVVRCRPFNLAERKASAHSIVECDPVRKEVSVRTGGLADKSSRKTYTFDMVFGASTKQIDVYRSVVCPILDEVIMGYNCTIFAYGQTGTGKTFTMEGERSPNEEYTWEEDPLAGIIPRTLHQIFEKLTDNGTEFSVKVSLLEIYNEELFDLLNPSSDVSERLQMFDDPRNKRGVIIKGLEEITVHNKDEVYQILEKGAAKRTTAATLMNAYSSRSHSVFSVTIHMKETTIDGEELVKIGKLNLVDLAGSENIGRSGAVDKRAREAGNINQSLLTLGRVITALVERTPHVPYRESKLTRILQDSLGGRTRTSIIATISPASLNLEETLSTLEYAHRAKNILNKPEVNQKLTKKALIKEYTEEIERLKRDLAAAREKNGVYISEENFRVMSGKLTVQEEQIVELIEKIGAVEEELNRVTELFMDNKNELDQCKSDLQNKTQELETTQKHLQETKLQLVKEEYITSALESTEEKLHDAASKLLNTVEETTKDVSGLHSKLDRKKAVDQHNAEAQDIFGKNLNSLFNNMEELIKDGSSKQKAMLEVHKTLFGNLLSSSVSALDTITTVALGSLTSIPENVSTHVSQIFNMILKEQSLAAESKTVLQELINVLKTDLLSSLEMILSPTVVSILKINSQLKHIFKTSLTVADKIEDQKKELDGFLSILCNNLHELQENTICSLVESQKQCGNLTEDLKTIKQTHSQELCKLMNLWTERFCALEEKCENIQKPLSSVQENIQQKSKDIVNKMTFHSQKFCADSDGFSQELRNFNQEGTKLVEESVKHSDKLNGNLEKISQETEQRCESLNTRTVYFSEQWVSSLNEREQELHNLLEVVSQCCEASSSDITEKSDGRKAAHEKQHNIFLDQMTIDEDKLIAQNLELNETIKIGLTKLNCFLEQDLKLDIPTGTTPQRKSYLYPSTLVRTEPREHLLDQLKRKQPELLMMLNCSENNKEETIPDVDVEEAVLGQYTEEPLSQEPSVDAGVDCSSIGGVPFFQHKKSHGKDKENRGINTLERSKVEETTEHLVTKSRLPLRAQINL
# Assay: Inhibition of KSP
row,IC50,SMILES
1,0.026 µM,CC(=O)N1N=C(c2cc(F)ccc2F)C[C@H]1c1ccccc1
2,145 µM,Oc1cccc2ccc(SSc3ccc4cccc(O)c4n3)nc12
3,5.6 µM,OC1CC2CCC(C1)N2CCCN1c2ccccc2Sc2ccc(Cl)cc21 (centres undefined)
4,9.7 µM,CN1Cc2c(ccc3c2CCO3)[C@@H](c2ccccc2)C1
5,0.8 µM,CCCCN1C(=O)[C@@H]2Cc3c([nH]c4ccccc34)[C@@H](c3cccc(O)c3)N2C1=O
6,0.012 µM,CC[C@H](c1nc2cc(Cl)ccc2c(=O)n1Cc1ccccc1)N(CCCN(C)C)C(=O)c1ccc(Br)cc1
7,0.28 µM,Cc1ccc(C(=O)N(CCCN)Cc2nc3cc(Cl)ccc3c(=O)n2Cc2ccccc2)cc1
8,27 µM,Oc1cccc(C(c2cc(Cl)c(O)c(Cl)c2)C(c2cc(Cl)c(O)c(Cl)c2)c2cc(Cl)c(O)c(Cl)c2)c1Cl (centres undefined)
9,0.09 µM,NCCCCCN1C(=O)[C@@H]2Cc3c([nH]c4ccccc34)[C@@H](c3cccc(O)c3)N2C1=O
10,22 µM,O=C(O)c1cc2c(cc1S(=O)(=O)O)C1C(C3C2C2(Cl)C(Cl)=C(Cl)C3(Cl)C2(Cl)Cl)C2(Cl)C(Cl)=C(Cl)C1(Cl)C2(Cl)Cl (centres undefined)
11,6.6 µM,CCNCCN1CCN(CCCN2c3ccccc3Sc3ccc(C(F)(F)F)cc32)CC1

row,SMILES,IC50
1,Cc1ccc2c(c1C)CNCC2c1ccccc1 (centres undefined),8.23 µM
2,CC(C)(O)C1C[C@@H](O)[C@]2(C)[C@H](CC[C@@]3(C)[C@H]2CC[C@H]2Cc4c([nH]c5ccccc45)[C@@]23C)O1 (some centres undefined),15 µM
3,Cc1cc2c(C(C)C)c(O)c(O)c(C=O)c2c(O)c1-c1c(C)cc2c(C(C)C)c(O)c(O)c(C=O)c2c1O [GOSSYPOL],25 µM
